# Laboratory results: patent US9427415B2, “Methods and compositions for modifying sensorial perception” (The Procter & Gamble Company, priority 2014, dated 2016)
# Where two headings read alike, the source gives them in different places.
# How the values were obtained:
# TRPA1V1 = experiment: Intracellular calcium (Fluo-4, FLIPR) activation of TRPA1V1 cells (co-expressing TRPA1 and TRPV1) by GRAS compounds; assay type: cell-based, human;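 also: HEK293 cells co-expressing TRPA1 and TRPV1, fluorescence read at 488/514 nm after baseline subtraction, recorded every 2 s over 10 min, ionomycin 10 µM and buffer as controls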
# human TRPA1 = target: T1, human TRPA1 (Homo sapiens, UniProt O75762, K186N/R3C/R58T); experiment: Intracellular calcium (Fluo-4, FLIPR) activation of TRPA1 cells by GRAS compounds; assay type: cell-based; settings: relative to AITC 30 μM;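 also: TRPA1-expressing cells, fluorescence read on a FLIPR Tetra (ex 488 nm, em 514 nm) every 2 s for 10 min after compound addition, baseline subtracted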
# T1 construct: expressed in transfected cells; pcDNA3 control cells
# T1 sequence (O75762 whole entry R3C/R58T/K186N): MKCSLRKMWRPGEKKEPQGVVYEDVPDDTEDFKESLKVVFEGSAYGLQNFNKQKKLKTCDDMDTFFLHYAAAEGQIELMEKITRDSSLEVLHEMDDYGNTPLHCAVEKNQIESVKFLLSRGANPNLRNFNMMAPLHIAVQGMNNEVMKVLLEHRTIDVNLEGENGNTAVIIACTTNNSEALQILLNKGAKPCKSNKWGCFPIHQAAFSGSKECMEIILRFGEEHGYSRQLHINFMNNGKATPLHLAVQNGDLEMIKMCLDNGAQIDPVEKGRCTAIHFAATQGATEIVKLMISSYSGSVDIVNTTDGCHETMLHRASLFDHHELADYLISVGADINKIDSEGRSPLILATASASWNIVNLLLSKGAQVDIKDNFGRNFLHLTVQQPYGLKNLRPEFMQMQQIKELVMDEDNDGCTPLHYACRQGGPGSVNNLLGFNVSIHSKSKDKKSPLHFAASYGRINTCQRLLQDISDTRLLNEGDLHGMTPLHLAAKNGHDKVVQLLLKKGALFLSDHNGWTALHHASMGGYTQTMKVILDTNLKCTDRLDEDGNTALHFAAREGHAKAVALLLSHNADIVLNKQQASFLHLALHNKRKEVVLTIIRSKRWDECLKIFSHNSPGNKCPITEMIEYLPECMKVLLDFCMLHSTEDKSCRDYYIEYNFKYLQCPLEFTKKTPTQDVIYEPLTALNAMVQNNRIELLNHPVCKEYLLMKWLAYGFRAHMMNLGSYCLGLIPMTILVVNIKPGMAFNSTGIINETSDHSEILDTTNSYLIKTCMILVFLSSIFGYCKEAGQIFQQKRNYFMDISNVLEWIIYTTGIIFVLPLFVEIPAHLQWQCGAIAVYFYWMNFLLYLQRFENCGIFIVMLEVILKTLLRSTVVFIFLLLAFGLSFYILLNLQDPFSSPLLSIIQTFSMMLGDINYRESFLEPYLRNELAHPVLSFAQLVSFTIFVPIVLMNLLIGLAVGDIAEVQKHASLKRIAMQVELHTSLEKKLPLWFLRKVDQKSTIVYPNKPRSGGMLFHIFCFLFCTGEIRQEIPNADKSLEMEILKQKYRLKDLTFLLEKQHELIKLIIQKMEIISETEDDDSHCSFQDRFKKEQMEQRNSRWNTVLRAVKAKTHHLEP
# human TRPV1 = target: T2, human TRPV1 (Homo sapiens, UniProt Q8NER1, M315I/T336M); experiment: Intracellular calcium (Fluo-4, FLIPR) activation of TRPV1 cells by GRAS compounds; assay type: cell-based; settings: relative to capsaicin 350 nM; for activation at 100 µM / activation at 1000 µM: read-out: V1 activation, % of agonist value;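 as to all read-outs here: TRPV1-expressing cells, FLIPR fluorescence at 488/514 nm with baseline subtracted, sampled every 2 s for 10 min after adding compound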
# T2 construct: expressed in transfected cells; pcDNA3 control cells
# T2 sequence (Q8NER1 whole entry M315I/T336M): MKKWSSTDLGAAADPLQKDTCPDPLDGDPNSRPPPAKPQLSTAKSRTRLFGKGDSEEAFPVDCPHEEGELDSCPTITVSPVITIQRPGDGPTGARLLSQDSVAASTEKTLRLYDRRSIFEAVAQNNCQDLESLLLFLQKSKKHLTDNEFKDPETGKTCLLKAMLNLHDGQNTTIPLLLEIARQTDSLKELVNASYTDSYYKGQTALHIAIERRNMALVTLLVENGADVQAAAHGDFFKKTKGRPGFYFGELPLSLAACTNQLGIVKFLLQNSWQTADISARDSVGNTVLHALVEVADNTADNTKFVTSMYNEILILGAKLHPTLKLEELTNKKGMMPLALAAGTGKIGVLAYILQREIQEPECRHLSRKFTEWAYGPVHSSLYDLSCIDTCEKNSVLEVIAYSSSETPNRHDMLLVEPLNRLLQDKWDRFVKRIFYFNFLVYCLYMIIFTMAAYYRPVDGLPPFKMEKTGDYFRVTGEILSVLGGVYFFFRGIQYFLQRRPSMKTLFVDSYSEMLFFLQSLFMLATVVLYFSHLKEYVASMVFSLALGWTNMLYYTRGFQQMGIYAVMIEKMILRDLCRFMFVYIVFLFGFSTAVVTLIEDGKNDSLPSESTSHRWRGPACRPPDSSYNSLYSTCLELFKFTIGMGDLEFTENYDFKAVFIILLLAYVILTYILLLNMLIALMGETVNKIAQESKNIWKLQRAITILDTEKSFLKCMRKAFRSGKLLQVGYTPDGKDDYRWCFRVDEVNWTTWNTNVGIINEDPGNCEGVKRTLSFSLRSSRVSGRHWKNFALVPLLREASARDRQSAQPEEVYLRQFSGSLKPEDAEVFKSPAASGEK
# [1] = Table 1(b), 1 mM, relative to AITC 30 μM
# [2] = Table 1(b), 1 mM, read-out: A1 activation, % of agonist value
# [3] = Table 1(a), 1 mM, average of three plates
# [4] = Table 1(h), 1 mM, relative to capsaicin 350 nM
# [5] = Table 1(g), 1 mM, relative to capsaicin 350 nM
# [6] = Table 1(h), 100 μM (marked *), relative to capsaicin 350 nM
# [7] = Table 1(f), 1 mM, relative to capsaicin 350 nM
compound,measurement,setting,value
O=Cc1ccc(O)cc1 [4-Hydroxybenzaldehyde],"A1V1 activation, % of agonist value","TRPA1V1; Table 1(a), 100 μM (*), relative to AITC 30 μM",163.2%
same,"A1V1 activation, % of agonist value","TRPA1V1; Table 1(c), 1 mM, relative to AITC 30 μM",60.3%
same,activation at 100 µM,"human TRPA1; Table 1(a), 100 μM (*), read-out: A1 activation, % of agonist value",80.4%
same,activation at 1000 µM,"human TRPA1; Table 1(c), 1 mM, read-out: A1 activation, % of agonist value",63%
same,activation at 100 µM,"human TRPV1; Table 1(a), 100 μM (*)",123%
CC(O)CCc1ccccc1 (centres unmarked) [4-Phenyl-2-butanol],"A1V1 activation, % of agonist value",TRPA1V1; [1],81.29%
same,activation at 1000 µM,human TRPA1; [2],58.8%
same,activation at 1000 µM,"human TRPV1; Table 1(b), 1 mM",37.9%
"CC/C=C\CCCCO [5-Octen-1-ol, (Z)]","A1V1 activation, % of agonist value","TRPA1V1; Table 1(a), 1 mM, relative to AITC 30 μM, average of three plates",69.24%
same,"A1 activation, % of agonist value",human TRPA1; [3],62.30%
same,"V1 activation, % of agonist value",human TRPV1; [3],20.50%
CCCCCC(=O)CCCC(=O)O [5-Oxodecanoic acid],"A1V1 activation, % of agonist value",TRPA1V1; [1],39.34%
same,activation at 1000 µM,human TRPA1; [2],28.6%
same,activation at 1000 µM,"human TRPV1; Table 1(b), 1 mM",53.4%
OCCCCCc1ccccc1 [5-Phenyl-1-pentanol],"A1V1 activation, % of agonist value",TRPA1V1; [1],52.1%
same,activation at 1000 µM,human TRPA1; [2],119%
same,activation at 1000 µM,"human TRPV1; Table 1(b), 1 mM",113%
CC(C)[C@@H]1CC[C@@H](C)C[C@@H]1O [(+)-Neomenthol],"A1V1 activation, % of agonist value",TRPA1V1; [4],44.8%
same,"V1 activation, % of agonist value","human TRPV1; Table 1(h), 1 mM",68.8%
"CC(=O)S [Acetic acid, thio-]","A1V1 activation, % of agonist value",TRPA1V1; [5],115.1%
same,"V1 activation, % of agonist value","human TRPV1; Table 1(g), 1 mM",61.9%
O=C(O)CCCCC(=O)O [Adipic acid],"A1V1 activation, % of agonist value",TRPA1V1; [5],70.4%
same,activation at 1000 µM,"human TRPV1; Table 1(g), 1 mM",47.6%
COc1ccccc1 [Anisole],"A1V1 activation, % of agonist value",TRPA1V1; [6],34.7%
same,activation at 100 µM,"human TRPV1; Table 1(h), 100 μM (marked *)",48.3%
CCCCCCCCCC1CCCC(=O)O1 (centres unmarked) [Delta-tetradecalactone],"A1V1 activation, % of agonist value",TRPA1V1; [5],61.7%
same,"V1 activation, % of agonist value","human TRPV1; Table 1(g), 1 mM",33.0%
CCCCC1CCCCC(=O)O1 (centres unmarked) [Epsilon-Decalactone],"A1V1 activation, % of agonist value",TRPA1V1; [7],52.9%
same,"V1 activation, % of agonist value","human TRPV1; Table 1(f), 1 mM",47.7%
CSCc1ccco1 [Furfuryl methyl sulfide],"A1V1 activation, % of agonist value",TRPA1V1; [5],111.6%
same,activation at 1000 µM,"human TRPV1; Table 1(g), 1 mM",50.1%
"O=C([O-])[C@H](O)[C@@H](O)[C@H](O)[C@H](O)CO.[K+] [Gluconic acid, monopotassium salt]","A1V1 activation, % of agonist value",TRPA1V1; [4],14.0%
same,activation at 1000 µM,"human TRPV1; Table 1(h), 1 mM",33%
c1ccc2[nH]ccc2c1 [Indole],"A1V1 activation, % of agonist value",TRPA1V1; [7],42.9%
same,activation at 1000 µM,"human TRPV1; Table 1(f), 1 mM",53.3%
CC(=O)CC(=O)OCC(C)C [Isobutyle acetoacetate],"A1V1 activation, % of agonist value",TRPA1V1; [5],81.9%
same,"V1 activation, % of agonist value","human TRPV1; Table 1(g), 1 mM",54.1%
O=C(O)[C@H](O)[C@@H](O)C(=O)O [L-(+)-Tartaric acid],"A1V1 activation, % of agonist value",TRPA1V1; [6],38.4%
same,"V1 activation, % of agonist value","human TRPV1; Table 1(h), 100 μM (marked *)",60.4%
CCCCCCCC(=O)O [Octanoic acid],"A1V1 activation, % of agonist value",TRPA1V1; [7],83.4%
same,activation at 1000 µM,"human TRPV1; Table 1(f), 1 mM",73.7%
O=C(/C=C/C=C/c1ccc2c(c1)OCO2)N1CCCCC1 [Piperine],"A1V1 activation, % of agonist value",TRPA1V1; [4],57.1%
same,activation at 1000 µM,"human TRPV1; Table 1(h), 1 mM",120%
O=C(O)c1ccc(O)c(O)c1 [Protocatechuic acid],"A1V1 activation, % of agonist value",TRPA1V1; [5],121.05%
same,activation at 1000 µM,"human TRPV1; Table 1(g), 1 mM",60.6%
O=C(O)C(O)C(O)C(=O)O (centres unmarked) [Tartaric acid],"A1V1 activation, % of agonist value",TRPA1V1; [4],29.6%
same,activation at 1000 µM,"human TRPV1; Table 1(h), 1 mM",55.8%
CC(C=O)=Cc1ccccc1 [alpha-Methylcinnamaldehyde],"A1V1 activation, % of agonist value",TRPA1V1; [5],104.4%
same,activation at 1000 µM,"human TRPV1; Table 1(g), 1 mM",54.6%
Cc1ccc(C=O)c(O)c1 [m-Homosalicylaldehyde],"A1V1 activation, % of agonist value",TRPA1V1; [5],140.7%
same,activation at 1000 µM,"human TRPV1; Table 1(g), 1 mM",56.5%
Tolylaldehyde glyceryl acetyl,"A1V1 activation, % of agonist value",TRPA1V1; [5],110.7%
same,"V1 activation, % of agonist value","human TRPV1; Table 1(g), 1 mM",53.0%
